In general, IC50 refers to the concentration at which inhibition is half-maximal.

Experimental findings from patent publication US10822337B2, “TGF-β inhibitorC” (Rigel Pharmaceuticals, Inc., priority 2015, dated 2020) are described below.

Structures are written as SMILES.

In assay [1] the test system is GDF8 signaling (GDF pSMAD, MPC11). Briefly: AlphaScreen SureFire SMAD3 (p-Ser423/425) assay, inhibition of GDF8 signaling. To be noted: Mus musculus, MPC-11, p-SMAD-3 (Ser423/425) in cell lysate after GDF8 stimulation. The class given is cell-based. The text has this:
(§1) Example 2: AlphaScreen® SureFire® SMAD3 (p-Ser423/425) Assay
(§2) The p-SMAD-3 (Ser423/425) SureFire® assay has been designed to measure the phosphorylation of endogenous cellular p-SMAD-3 (Ser423/425) in cell lysates and is a system for the screening of both modulators of receptor activation (e.g. agonists and antagonists) as well as agents acting intracellularly, such as small molecule inhibitors of upstream events. The assay will measure p-SMAD-3 (Ser423/425) activation by either cloned or endogenous receptors, and can be applied to primary cells.
(§3) 1× Lysis buffer: 1 ml of 5× Lysis buffer was diluted with 4 ml of sterile water. After dilution, excess 1× Lysis buffer can be frozen and thawed up to 5 times without loss in activity.
(§4) P-SMAD-3 (Ser423/425) SureFire® Assay Protocols
(§5) Step A: Preparation of Buffers
(§6) Activation buffer: The buffer was warmed slowly to 37° C. and gently mixed to re-suspend. Activation buffer can be stored at room temperature with no loss in activity.
(§7) Reaction buffer: The buffer was kept at 4° C. while in use.
(§8) AlphaScreen® Protein A IgG Kit: The kit was stored at 4° C. in the dark.
(§9) Reaction buffer+Activation buffer+AlphaScreen® Acceptor beads: Reaction buffer (40 parts), Activation Buffer (10 parts) and Acceptor beads (1 part) were mixed and the mixture was stored at room temperature and used the same day. Mixture was added to 384-well plates; excess mixturewas discarded.
(§10) Dilution buffer+AlphaScreen® Donor beads: Dilution buffer (20 parts) and Donor beads (1 part) were mixed and the mixture was stored at room temperature and used the same day. Excess mixture was discarded.
(§11) Assay control samples: After reconstitution in 250 μl of water, lysates were at −20° C. in single use aliquots.
(§12) Step B: Preparation of Samples and Cells
(§13) 96-well Assay Protocol for 293FT and RMS13 adherent cells can be carried out manually or in high throughput with liquid handling robots.
(§14) The cells (80 μL of cells for 96 well plates) were plated in collagen coated tissue culture plates in RPMI or FreeStyle medium (Invitrogen) and incubated overnight. For manual analysis, 6 plates for GDF8, 6 plates for TGFβ, and optionally 6 plates for Alk5ca(ALKS constitutively active) were used.
(§15) The compound dilution plates were prepared as follows: 12 μL of DMSO was transferred into first column of 96-well plate, and 16 μL of DMSO was transferred into columns 2-12 of the 96-well plate. 12 μL of compound solution was transferred into first column of the DMSO-containing 96-well plate. Three-fold dilution was performed up to column 10 of the DMSO-containing 96-well plate.
(§16) Step C: Treatment and Analysis
(§17) The plate containing cells were treated with compounds for about 10 minutes, and then ligand was added. GDF8 or TGFb was added to plates to stimulate. 293FL cells were stimulatedfor 90 minutes at 37° C.; and RMS13 cells were stimulated for 60 minutes at 37° C. The medium was then removed from the cells, and 1× Lysis Buffer (about 25 μL) was added and the plate was gently agitated on plate shaker for 5-10 minutes.
(§18) The lysate (5 μL) was then placed into 384-well shallow plates avoiding the generation of bubbles. To this, the Reaction Buffer+Activation Buffer+AlphaScreen® Acceptor beadsmixture (5 μL) was added. The plate was sealed with adhesive cover and shielded from light (e.g., with metal foil), and agitated gently on plate shaker for 2 hours at room temperature.
(§19) Dilution buffer+AlphaScreen® Donor beads (2 μL) was then added, and the plate was intubated on the plate shaker for an additional 1½ hours. After completion, the plate was read on Synergy-4 or Enspire plate reader, using AlphaScreen® pSMAD3® settings.
(§20) Representative results for inhibition of GDF8 (data=GDF pSMAD (MPC11) (μM)) and TGF-β (data=TGF-β pSMAD (MPC-11) (μM)) signaling are shown in Table 1: […]
On the technique in general: In Alpha technology, singlet oxygen from a donor bead excites a nearby acceptor bead.

The subject of assay [2] is TGF-β signaling (TGF-β pSMAD, MPC-11). Briefly: AlphaScreen SureFire SMAD3 (p-Ser423/425) assay, inhibition of TGF-β signaling. It counts as cell-based. To be noted: Mus musculus, p-SMAD-3 (Ser423/425) in cell lysate after TGF-β stimulation.
Description: as §1, §2, §3, §4, §5, §6, §7, §8, §9, §10, §11, §12, §13, §14, §15, §16, §17, §18, §19, §20

In the case of `Cc1cc(-c2nn3c(c2-c2ccc4nccnc4c2)CCC3)ccc1F` [Compound 55, 6-(2-(4-Fluoro-3-methylphenyl)-5,6-dihydro-4H-pyrrolo[1,2-b]pyrazol-3-yl)quinoxaline], the IC50 was determined as 173 nM in assay [1] and 525 nM in assay [2].

As to `COc1cccc(-c2nn3c(c2-c2ccc4nccnc4c2)CCC3)c1` [Compound 56, 6-(2-(3-Methoxyphenyl)-5,6-dihydro-4H-pyrrolo[1,2-b]pyrazol-3-yl)quinoxaline], the IC50 in assay [1] came out at 372 nM; in assay [2], 866 nM.

Regarding `Clc1cccc(-c2nn3c(c2-c2ccc4nccnc4c2)CCC3)c1` [Compound 57, 6-(2-(3-Chlorophenyl)-5,6-dihydro-4H-pyrrolo[1,2-b]pyrazol-3-yl)quinoxaline], the IC50 in assay [1] stood at 72.4 nM; in assay [2], 398 nM.

As to `FC(F)(F)c1cccc(-c2nn3c(c2-c2ccc4nccnc4c2)CCC3)c1` [Compound 58, 6-(2-(3-Trifluoromethylphenyl)-5,6-dihydro-4H-pyrrolo[1,2-b]pyrazol-3-yl)quinoxaline], the IC50 is 309 nM in assay [1] and 863 nM in assay [2].

For the compound `FC(F)(F)c1cccc(-c2nn3c(c2-c2ccc4[nH]ncc4c2)OCC3)c1` [Compound 59, 7-(1H-Indazol-5-yl)-6-(3-trifluoromethylphenyl)-2,3-dihydropyrazolo[5,1-b]oxazole], the values for the IC50 in assay [1] and in assay [2] were 217 nM and 701 nM, respectively.

As to `Cn1cnc2ccc(-c3c(-c4cccc(C(F)(F)F)c4)nn4c3OCC4)cc21` [Compound 60, 7-(1-Methyl-1H-benzo[d]imidazol-6-yl)-6-(3-trifluoromethylphenyl)-1,2-dihydropyrazolo[5,1-b]oxazole], the IC50 in assay [1] was found to be 68.6 nM; in assay [2] it was 214 nM.

In the case of `FC(F)(F)c1cccc(-c2nn3c(c2-c2ccc4nccn4c2)OCC3)c1` [Compound 61, 7-(Imidazo[1,2-a]pyridin-6-yl)-6-(3-trifluoromethylphenyl)-2,3-dihydropyrazolo[5,1-b]oxazole], the half-inhibitory concentration (IC50) turned out to be 130 nM in assay [1] and 456 nM in assay [2].

On to `FC(F)(F)c1cccc(-c2nn3c(c2-c2ccc4ncsc4c2)OCC3)c1` [Compound 62, 7-(Benzo[d]thiazol-6-yl)-6-(3-trifluoromethylphenyl)-2,3-dihydropyrazolo[5,1-b]oxazole], for which the IC50 in assay [1] is 272 nM; in assay [2], 787 nM.

In the case of `FC(F)(F)c1cccc(-c2nn3c(c2-c2ccc4ncccc4c2)OCC3)c1` [Compound 63, 7-(Quinolin-6-yl)-6-(3-trifluoromethylphenyl)-2,3-dihydropyrazolo[5,1-b]oxazole], the IC50 in assay [1] was found to be 1990 nM; in assay [2] it was 6030 nM.

For the compound `FC(F)(F)c1cccc(-c2nn3c(c2-c2ccc4nccnc4c2)OCC3)c1` [Compound 64, 7-(Quinoxalin-6-yl)-6-(3-trifluoromethylphenyl)-2,3-dihydropyrazolo[5,1-b]oxazole], the IC50 in assay [1] stood at 337 nM; in assay [2], 1480 nM.

As to `Fc1ccc(-c2nn3c(c2-c2ccc4cn[nH]c4c2)OCC3)cc1` [Compound 65, 6-(4-Fluorophenyl)-7-(1H-indazol-6-yl)-2,3-dihydropyrazolo[5,1-b]oxazole], the IC50 came to 143 nM in assay [1] and 881 nM in assay [2].

As for `Fc1ccc(-c2nn3c(c2-c2ccc4nccn4c2)OCC3)cc1` [Compound 67, 6-(4-Fluorophenyl)-7-(imidazo[1,2-a]pyridin-6-yl)-2,3-dihydropyrazolo[5,1-b]oxazole], the values for the IC50 in assay [1] and in assay [2] were 331 nM and 2640 nM, respectively.

Regarding `Fc1ccc(-c2nn3c(c2-c2ccc4ncsc4c2)OCC3)cc1` [Compound 68, 7-(Benzo[d]thiazol-6-yl)-6-(4-fluorophenyl)-2,3-dihydropyrazolo[5,1-b]oxazole], the IC50 in assay [1] amounted to 332 nM; in assay [2], 1100 nM.

In the case of `Fc1ccc(-c2nn3c(c2-c2ccc4ncccc4c2)OCC3)cc1` [Compound 69, 6-(4-Fluorophenyl)-7-(quinolin-6-yl)-2,3-dihydropyrazolo[5,1-b]oxazole], the IC50 in assay [1] worked out at 1260 nM; in assay [2], 7810 nM.

In the case of `Fc1ccc(-c2nn3c(c2-c2ccc4nccnc4c2)OCC3)cc1` [Compound 70, 6-(4-Fluorophenyl)-7-(quinoxalin-6-yl)-2,3-dihydropyrazolo[5,1-b]oxazole], the IC50 worked out at 399 nM in assay [1] and 1370 nM in assay [2].

Turning to `FC(F)(F)c1cccc(-c2nn3c(c2-c2ccc4cn[nH]c4c2)OCC3)c1` [Compound 71, 7-(1H-Indazol-6-yl)-6-(3-trifluoromethylphenyl)-2,3-dihydropyrazolo[5,1-b]oxazole], the IC50 in assay [1] stood at 179 nM; in assay [2], 852 nM.

As to `COc1cccc(-c2nn3c(c2-c2ccc4ncn(C)c4c2)OCC3)c1` [Compound 72, 6-(3-Methoxyphenyl)-7-(1-methyl-1H-benzo[d]imidazol-6-yl)-2,3-dihydropyrazolo[5,1-b]oxazole], the values for the IC50 in assay [1] and in assay [2] were 233 nM and 664 nM, respectively.

On to `COc1cccc(-c2nn3c(c2-c2ccc4nccn4c2)OCC3)c1` [Compound 73, 7-(Imidazo[1,2-a]pyridin-6-yl)-6-(3-methoxyphenyl)-2,3-dihydropyrazolo[5,1-b]oxazole], for which the IC50 in assay [1] amounted to 329 nM; in assay [2], 1490 nM.

Regarding `COc1cccc(-c2nn3c(c2-c2ccc4ncsc4c2)OCC3)c1` [Compound 74, 7-(Benzo[d]thiazol-6-yl)-6-(3-methoxyphenyl)-2,3-dihydropyrazolo[5,1-b]oxazole], the concentration for half-maximal inhibition (IC50) in assay [1] is 243 nM; in assay [2] it was 1040 nM.

Turning to `COc1cccc(-c2nn3c(c2-c2ccc4ncccc4c2)OCC3)c1` [Compound 75, 6-(3-Methoxyphenyl)-7-(quinolin-6-yl)-2,3-dihydropyrazolo[5,1-b]oxazole], the IC50 stood at 1240 nM in assay [1] and 7240 nM in assay [2].

As for `COc1cccc(-c2nn3c(c2-c2ccc4nccnc4c2)OCC3)c1` [Compound 76, 6-(3-Methoxyphenyl)-7-(quinoxalin-6-yl)-2,3-dihydropyrazolo[5,1-b]oxazole], the figures for the IC50 in assay [1] and in assay [2] were 180 nM and 649 nM, respectively.

In the case of `Fc1cccc(-c2nn3c(c2-c2ccc4[nH]ncc4c2)CCC3)c1` [Compound 77, 5-(2-(3-Fluorophenyl)-5,6-dihydro-4H-pyrrolo[1,2-b]pyrazol-3-yl)-1H-indazole], the half-maximal inhibitory concentration (IC50) in assay [1] is 336 nM; in assay [2], 1340 nM.

As for `Fc1cccc(-c2nn3c(c2-c2ccc4cn[nH]c4c2)CCC3)c1` [Compound 78, 6-(2-(3-Fluorophenyl)-5,6-dihydro-4H-pyrrolo[1,2-b]pyrazol-3-yl)-1H-indazole], the IC50 in assay [1] amounted to 812 nM; in assay [2] it was 2300 nM.

As for `Cn1cnc2ccc(-c3c(-c4cccc(F)c4)nn4c3CCC4)cc21` [Compound 79, 6-(2-(3-Fluorophenyl)-5,6-dihydro-4H-pyrrolo[1,2-b]pyrazol-3-yl)-1-methyl-1H-benzo[d]imidazole], the concentration for half-maximal inhibition (IC50) is 196 nM in assay [1] and 417 nM in assay [2].

For the compound `Fc1cccc(-c2nn3c(c2-c2ccc4nccn4c2)CCC3)c1` [Compound 80, 6-(2-(3-Fluorophenyl)-5,6-dihydro-4H-pyrrolo[1,2-b]pyrazol-3-yl)imidazo[1,2-a]pyridine], the IC50 in assay [1] came out at 760 nM; in assay [2], 2980 nM.

For `Fc1cccc(-c2nn3c(c2-c2ccc4ncsc4c2)CCC3)c1` [Compound 81, 6-(2-(3-Fluorophenyl)-5,6-dihydro-4H-pyrrolo[1,2-b]pyrazol-3-yl)benzo[d]thiazole], the results for the IC50 in assay [1] and in assay [2] were 375 nM and 1870 nM, respectively.
